# Assay results published in patent US20040136975A1 (priority 2004, published 2004).
# Assays:
# [1] = test system: non-transformed (pDCR) NIH 3T3 cells; test: cells; type: cell-based; settings: Mus musculus, NIH3T3, 48 h, read-out: inhibition of growth
# VEGF = settings: cited from earlier work
# transformed cells = settings: cited from earlier work
# transfected EC cells = settings: cited from earlier work
Compound,inhibition at 50 µM [1] [%],up-regulation of VEGF by heregulin (VEGF),morphological reversion of transformed cells (transformed cells),basal motility and motility stimulated by JNK agonists (transfected EC cells)
COc1cccc(-c2cc(=O)c3ccccc3o2)c1N [PD98059],50,not,causes morphological reversion,–
COc1cc(/C=C/C(=O)CC(=O)/C=C/c2ccc(O)c(OC)c2)ccc1O [curcumin],–,–,–,decreased
SB203580,–,blocks,–,–
trans-retinoic acid,–,–,–,decreased
